Test system: PC3 cells
Test: NAMPT Cell Proliferation Assay
Format: cell-based
Conditions: Homo sapiens, PC-3, 120 h, 5 days incubation, cell viability by Cell Titer Glo
Outline: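 Seeded at 500 cells/well in RPMI with 10% heat-inactivated FBS and left to attach overnight at 37° C, 5% CO2. Compounds were added as 10-fold dilutions […] for 5 days, then viability was read by CellTiter-Glo. IC50s came from sigmoidal fits of percent inhibition.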

N#Cc1ccc(C(=O)N2CCC(c3ccc(NC(=O)[C@H]4CCN(c5cccnn5)C4)cc3)CC2)cc1 [Example 726, (3S)-N-{4-[1-(4-cyanobenzoyl)piperidin-4-yl]phenyl}-1-(pyridazin-3-yl)pyrrolidine-3-carboxamide]
IC50: 0.0327 µM

COc1ccccc1C(=O)N1CCC(c2ccc(NC(=O)[C@H]3CCN(c4cccnn4)C3)cc2)CC1 [Example 727, (3S)-N-{4-[1-(2-methoxybenzoyl)piperidin-4-yl]phenyl}-1-(pyridazin-3-yl)pyrrolidine-3-carboxamide]
IC50: 0.0046 µM

Cc1cccc(C(=O)N2CCC(c3ccc(NC(=O)[C@H]4CCN(c5cccnn5)C4)cc3)CC2)c1C [Example 728, (3S)-N-{4-[1-(2,3-dimethylbenzoyl)piperidin-4-yl]phenyl}-1-(pyridazin-3-yl)pyrrolidine-3-carboxamide]
IC50: 0.00697 µM

CC(C)c1ccc(C(=O)N2CCC(c3ccc(NC(=O)[C@H]4CCN(c5cccnn5)C4)cc3)CC2)cc1 [Example 729, (3S)-N-(4-{1-[4-(propan-2-yl)benzoyl]piperidin-4-yl}phenyl)-1-(pyridazin-3-yl)pyrrolidine-3-carboxamide]
IC50: 0.0135 µM

O=C(Nc1ccc(C2CCN(C(=O)C3CCCCC3)CC2)cc1)[C@H]1CCN(c2cccnn2)C1 [Example 730, (3S)-N-{4-[1-(cyclohexylcarbonyl)piperidin-4-yl]phenyl}-1-(pyridazin-3-yl)pyrrolidine-3-carboxamide]
IC50: 0.00681 µM

O=C(Nc1ccc(C2CCN(C(=O)c3cccs3)CC2)cc1)[C@H]1CCN(c2cccnn2)C1 [Example 731, (3S)-1-(pyridazin-3-yl)-N-{4-[1-(thiophen-2-ylcarbonyl)piperidin-4-yl]phenyl}pyrrolidine-3-carboxamide]
IC50: 0.0005 µM

O=C(Nc1ccc(C2CCN(C(=O)c3ccc(O)cc3)CC2)cc1)[C@H]1CCN(c2cccnn2)C1 [Example 732, (3S)-N-{4-[1-(4-hydroxybenzoyl)piperidin-4-yl]phenyl}-1-(pyridazin-3-yl)pyrrolidine-3-carboxamide]
IC50: 0.0299 µM

N#Cc1cccc(C(=O)N2CCC(c3ccc(NC(=O)[C@H]4CCN(c5cccnn5)C4)cc3)CC2)c1 [Example 733, (3S)-N-{4-[1-(3-cyanobenzoyl)piperidin-4-yl]phenyl}-1-(pyridazin-3-yl)pyrrolidine-3-carboxamide]
IC50: 0.0375 µM

O=C(Nc1ccc(C2CCN(C(=O)CC(F)(F)F)CC2)cc1)[C@H]1CCN(c2cccnn2)C1 [Example 734, (3S)-1-(pyridazin-3-yl)-N-{4-[1-(3,3,3-trifluoropropanoyl)piperidin-4-yl]phenyl}pyrrolidine-3-carboxamide]
IC50: 0.00833 µM

COCC(=O)N1CCC(c2ccc(NC(=O)[C@H]3CCN(c4cccnn4)C3)cc2)CC1 [Example 735, (3S)-N-{4-[1-(methoxyacetyl)piperidin-4-yl]phenyl}-1-(pyridazin-3-yl)pyrrolidine-3-carboxamide]
IC50: 0.0689 µM

CC(C)CC(=O)N1CCC(c2ccc(NC(=O)[C@H]3CCN(c4cccnn4)C3)cc2)CC1 [Example 736, (3S)-N-{4-[1-(3-methylbutanoyl)piperidin-4-yl]phenyl}-1-(pyridazin-3-yl)pyrrolidine-3-carboxamide]
IC50: 0.00809 µM

N#Cc1ncccc1N1CC(C(=O)Nc2ccc(C3CCN(C(=O)c4ccccc4)CC3)cc2)C1 [Example 737, N-[4-(1-benzoylpiperidin-4-yl)phenyl]-1-(2-cyanopyridin-3-yl)azetidine-3-carboxamide]
IC50: 1.86 µM

N#Cc1ccncc1N1CC(C(=O)Nc2ccc(C3CCN(C(=O)c4ccccc4)CC3)cc2)C1 [Example 738, N-[4-(1-benzoylpiperidin-4-yl)phenyl]-1-(4-cyanopyridin-3-yl)azetidine-3-carboxamide]
IC50: 0.854 µM

Cc1cc(F)ncc1N1CC(C(=O)Nc2ccc(C3CCN(C(=O)c4ccccc4)CC3)cc2)C1 [Example 739, N-[4-(1-benzoylpiperidin-4-yl)phenyl]-1-(6-fluoro-4-methylpyridin-3-yl)azetidine-3-carboxamide]
IC50: 7.31 µM

N#Cc1cncc(N2CC(C(=O)Nc3ccc(C4CCN(C(=O)c5ccccc5)CC4)cc3)C2)c1 [Example 740, N-[4-(1-benzoylpiperidin-4-yl)phenyl]-1-(5-cyanopyridin-3-yl)azetidine-3-carboxamide]
IC50: 0.914 µM

Cc1cncc(N2CC(C(=O)Nc3ccc(C4CCN(C(=O)c5ccccc5)CC4)cc3)C2)c1 [Example 741, N-[4-(1-benzoylpiperidin-4-yl)phenyl]-1-(5-methylpyridin-3-yl)azetidine-3-carboxamide]
IC50: 0.181 µM

CC(C)Cn1cc(-c2ncc(C(=O)N[C@H]3CCN(c4cccnn4)C3)s2)cn1 [Example 742, 2-[1-(2-methylpropyl)-1H-pyrazol-4-yl]-N-[(3S)-1-(pyridazin-3-yl)pyrrolidin-3-yl]-1,3-thiazole-5-carboxamide]
IC50: 0.734 µM

Cc1ncccc1N1CC[C@H](C(=O)Nc2ccc(C3CCN(C(=O)c4ccccc4)CC3)cc2)C1 [Example 743, (3S)—N-[4-(1-benzoylpiperidin-4-yl)phenyl]-1-(2-methylpyridin-3-yl)pyrrolidine-3-carboxamide]
IC50: 6.62 µM

Cc1ncccc1N1CC[C@H](C(=O)Nc2ccc(C3CCN(C(=O)c4ccccc4F)CC3)cc2)C1 [Example 744, (3S)—N-{4-[1-(2-fluorobenzoyl)piperidin-4-yl]phenyl}-1-(2-methylpyridin-3-yl)pyrrolidine-3-carboxamide]
IC50: 2.72 µM

Cc1ncccc1N1CC[C@H](C(=O)Nc2ccc(C3CCN(C(=O)CCC(F)(F)F)CC3)cc2)C1 [Example 745, (3S)-1-(2-methylpyridin-3-yl)-N-{4-[1-(4,4,4-trifluorobutanoyl)piperidin-4-yl]phenyl}pyrrolidine-3-carboxamide]
IC50: > 10 µM

CC(C)Cn1cc(-c2ccc(C(=O)N[C@H]3CCN(c4ccc(Cl)nn4)C3)o2)cn1 [Example 746, N-[(3S)-1-(6-chloropyridazin-3-yl)pyrrolidin-3-yl]-5-[1-(2-methylpropyl)-1H-pyrazol-4-yl]furan-2-carboxamide]
IC50: > 10 µM

CC(C)Cn1cc(-c2ccc(C(=O)N[C@H]3CCN(c4cccnn4)C3)o2)cn1 [Example 747, 5-[1-(2-methylpropyl)-1H-pyrazol-4-yl]-N-[(3S)-1-(pyridazin-3-yl)pyrrolidin-3-yl]furan-2-carboxamide]
IC50: 5.92 µM

CC1(Cn2cc(-c3ccc(NC(=O)C4CN(c5cccnn5)C4)cc3)cn2)CCOCC1 [Example 748, N-(4-{1-[(4-methyltetrahydro-2H-pyran-4-yl)methyl]-1H-pyrazol-4-yl}phenyl)-1-(pyridazin-3-yl)azetidine-3-carboxamide]
IC50: 0.00258 µM

CC(C)C(=O)N1CCC(c2ccc(C(=O)N[C@H]3CCN(c4ccc(Cl)nn4)C3)cc2)CC1 [Example 749, N-[(3S)-1-(6-chloropyridazin-3-yl)pyrrolidin-3-yl]-4-[1-(2-methylpropanoyl)piperidin-4-yl]benzamide]
IC50: > 10 µM

O=C(Nc1ccc(-c2cnn(CCN3CCNCC3)c2)cc1)C1CN(c2cccnn2)C1 [Example 750, N-(4-{1-[2-(piperazin-1-yl)ethyl]-1H-pyrazol-4-yl}phenyl)-1-(pyridazin-3-yl)azetidine-3-carboxamide]
IC50: 0.226 µM

CC(C)(C)Cn1cc(-c2ccc(NC(=O)C3CN(c4cccnn4)C3)cc2)cn1 [Example 751, N-{4-[1-(2,2-dimethylpropyl)-1H-pyrazol-4-yl]phenyl}-1-(pyridazin-3-yl)azetidine-3-carboxamide]
IC50: 0.00271 µM

— patent US20130303509A1, “NAMPT INHIBITORS” (AbbVie Inc., priority 2012, published 2013)
